Measurements: patent US11149047B2, “Aryl imidazoles for treatment of cancer” (Aptose Biosciences Inc., priority 2017, dated 2021)

Key:
[1] = tested on: MV4-11, EOL-1, and KG-1 AML cells; experiment: Flow cytometry for apoptosis (Annexin V / PI); assay type: cell-based; conditions: all cell lines, FIG. 10A
Experimental: (§1) Cells were treated as described above. To determine apoptosis, cells were stained with FITC-Annexin V and propidium iodide (PI; BD Pharmingen, catalog #556570) and then analyzed on BD Accuri C6 flow cytometer. To measure DNA synthesis and phases of cell cycle, treated cells were stained with 5-ethynyl-2′-deoxyuridine (Edu) Alexa Fluor 488 (Thermo Fisher Scientific, catalog #C10425) and PI (PI/RNase A staining solution, BD Biosciences, catalog #550825). The dead cells were excluded from analysis by using Live/Dead Fixable Far Red Dead Cell Stain Kit (Thermo Fisher Scientific, catalog #L34973). Staining was performed as per the manufacturers' instructions.
To investigate the mechanism by which COMPOUND I causes cell death, MV4-11, EOL-1, and KG-1 AML cells were treated with or without COMPOUND I and subjected to apoptotic marker detection by flowcytometry and Western blotting. Cells were stained with PI and Annexin V to distinguish between live (Annexin V and PI negative), early apoptotic (Annexin V positive and PI negative), late apoptotic (Annexin V and PI positive), and dead (Annexin V negative and PI positive) cells. […] COMPOUND I induced accumulation of c-PARP1 in a concentration- and time dependent manner that paralleled apoptosis induction as measured by Annexin V/PI staining (FIGS. 10B-C; FIG. 17B). […]

[2] = tested on: MV4-11 cells; experiment: Flow cytometry cell-cycle analysis; assay type: cell-based; conditions: 1 μmol/L, 24-hour exposure
Experimental: as §1
(§2) Previous studies reported upregulation of KLF4 and CDKN1A expression as a potential mechanism of APT0-COMPOUND I activity in tumors. […] The upregulation of CDKN1A mRNA increased with duration of exposure in all AML cell lines tested (FIGS. 15D and 15E). At later time points, CDKN1A expression began to decrease, likely due to increasing cell death. Induction of CDKN1A expression is typically associated with a subsequent G0-G1, cell-cycle arrest, which was observed following COMPOUND I treatment of solid tumor lines.

[3] = tested on: KLF4 and CDKN1A expression in AML cell lines; experiment: qRT-PCR of KLF4 and CDKN1A (p21) expression; assay type: cell-based
Experimental: Cells were treated with vehicle or COMPOUND I at various concentrations for 24 hours or at a single concentration for 1, 3, 6, 12, and 24 hours before harvesting. Cells were lysed by QiaShredder columns (QIAGEN, catalog #79656), total RNA was isolated using QIAGEN RNeasy Plus Mini Kit (catalog #74134), and cDNA was synthesized utilizing Transcriptor Universal cDNA master mix (Roche, catalog #05893151001) and then used for qRT-PCR analysis using FastStart essential DNA probes master mix (Roche, catalog #06402682001) and Roche LightCycler96. Primer probe pairs were purchased from IDT (Table 5). Expression was calculated as fold change over vehicle treated samples after normalizing to GAPDH […].
as §2

[4] = tested on: Raji cells; experiment: Cellular pharmacology: intracellular accumulation and efflux by LC-MS/MS; assay type: in vitro ADME, human
Experimental: Cells exposed to COMPOUND I or Fe(COMPOUND I)3 were homogenized in acetonitrile containing 5 ng of a deuterated COMPOUND I standard. Samples were analyzed at the UCSD Molecular Mass Spectrometry Facility employing an Agilent 1260 liquid chromatograph (LC) system coupled with a Thermo LCQdeca mass spectrometer using positive ion mode electrospray ionization (ESI) as the ion source. The ESI ion source voltage was set at 5 kV, with sheath gas flow rate of 80 units, auxiliary gas flow rate of 20 units, and capillary temperature of 250° C., respectively. A Phenomenex Kinetex Biphenyl column (ID 2.1 mm×length 50 mm, particle size 2.6 μm) was utilized for LC separation using water with 0.1% formic acid as the mobile phase A and acetonitrile with 0.1% formic acid as the mobile phase B. The LC flow rate was set at 0.30 mL/min. The LC gradient increased from 5% mobile phase B to 95% mobile phase B in 10 minutes, held at 95% B for 2 minutes, returned to 5% B in 1 minute, and then held at 5% B for 6 minutes. […] Selected reaction monitoring (SRM) mode was used to acquire the m/z 353 and m/z 359 fragmental peaks. The SRM peak area ratio (COMPOUND I/COMPOUND I-d6) related to the amount of spiked COMPOUND I-d6 was used for the quantification of COMPOUND I and Fe(COMPOUND I)3 in the samples. The same column, gradient and flow rate were used for detection of Fe(COMPOUND I)3 which was detected using an Agilent 1100 HPLC and Orbitrap XL (Thermo) mass spectrometer employing a Thermo IonMax ESI interface. The Fe(COMPOUND I)3 eluted around 11.5 minutes with these conditions. A 10:1 flow split was used for the eluent flow rate of 0.3 mL/min, so that approximately 0.030 mL/min was introduced into the ESI after the split. […]
For this reason, Raji Burkitt's lymphoma cells were selected for study of the cellular pharmacology of COMPOUND I. The intracellular accumulation of COMPOUND I in the Raji cells was quantified by liquid chromatography tandem mass spectroscopy (LC-MS/MS). […]

Structure (SMILES): Cc1[nH]c2ccc(F)cc2c1-c1nc2c3cccnc3c3ncccc3c2[nH]1 [COMPOUND I, 2-(5-fluoro-2-methyl-1H-indol-3-yl)-1H-imidazo[4,5-f][1,10]phenanthroline]
- apoptotic cells at 24 hours [1]: concentration-dependent increase in apoptotic cells
- G0-G1 cell-cycle arrest [2]: all live cells had arrested in G0-G1
- AML cell lines with upregulated KLF4 expression ([3]; 24 hr treatment, FIG. 15A): 4 of 6
- CDKN1A (p21) expression ([3]; FIGS. 15B and 15C): induced in all AML cell lines in a concentration-dependent manner
- time at which cellular content approaches steady-state ([4]; Raji cells, FIG. 6A): ~6 h
- Rate of efflux over first 2 hours ([4]; Raji cells, mean ± SEM, n = 6): −0.19 ± 0.025 log fmole/10^7 cells/h
- intracellular Zn chelate ([4]; cells exposed to COMPOUND I): a Zn chelate was not detectable
